# In patent publication US8022076B2, “Substituted thieno[2,3-d]pyrimidines as potassium channel inhibitors” (Xention Limited, priority 2003, dated 2011):
# Biological target: T1, human Kv1.5 (Homo sapiens, UniProt P22460)
# T1 construct: expressed in transfected cells; stably transfected, blasticidin selection
# Assay: Kv1.5 Rb+ efflux assay
# Type: cell-based
# Conditions: inhibition of 86Rb+ efflux through Kv1.5, cells stably transfected with human Kv1.5, 10 point concentration response curves n=2
# Procedure: The pore of a potassium channel is permeable to other monovalent cations such as Rb^+ and Tl^+. Analysis of cellular efflux of potassium channel permeable ions enables potassium channel activity to be monitored directly. Cells stably transfected with cDNA for human Kv1.5 (in pEF6::VA-His-TOPO) were grown in Dulbecco's Modified Eagle media (DMEM) alpha supplemented with 10% Fetal Calf Serum (FCS), 20 μl/ml penicillin (5000 U/ml) streptomycin (5000 μg/ml), 10 μl/ml [100×] glutamine, and blasticidin (7.5 μg/ml). Cells were dispensed into 96 well cellstar TC plates and allowed to grow until a confluent monolayer was visible. On the morning of the assay run, cold media was aspirated using the TECAN plate washer, and a 50 μl media spike containing 2 μCi/ml (37 kBq/ml) ^86Rb^+ added to each well containing cells using the Shallow-Well Matrix Platemate. Plates were placed in a incubator at 37° C. for a minimum of 3 hours. Unloaded ^86Rb^+ in the “hot” media was aspirated and each well washed 4×250 μl with Earls Balanced Salt Solution (EBSS) which contained 5 mM KCl, 140 mM NaCl, 2 mM CaCl2, 1 mM MgSO4, 10 mM HEPES, and 5 mM glucose, pH 7.4, 290-300 mOsm. These cells were then pre-incubated with 50 μl of EBSS+/−test compounds for 10 minutes at room temperature. After the 10 minute incubation, 50 μl of modified EBSS which contained 145 mM KCl, 2 mM CaCl2, 1 mM MgSO4, 10 mM HEPES, 5 mM glucose, pH 7.4, 290-300 mOsm, was added, and the cells were incubated for a further 10 minutes at room temperature. The high KCl EBSS was used to depolarise cells to a membrane potential that would activate Kv1.5 channels. After the final incubation 80 μl/100 μl of the reaction from each well was transferred to equivalent wells in a Packard “Optiplate” white 96 well plate and counted in a Packard TopCount liquid scintillation counter by Cerenkov emission. Percentage inhibition ^86Rb^+ efflux through Kv1.5 was calculated by normalisation to 2.5 mM 4 amino-pyridine control block of Kv1.5. Alternatively cells were loaded with ^85Rb^+ and quantified by atomic absorption spectroscopy. IC50 determinations were derived from 10 point concentration response curves n=2 using the method described above. Data was fitted as variable slope sigmoidal fit using Graphpad Prism (V3.02) software.
# T1 sequence (P22460 whole entry): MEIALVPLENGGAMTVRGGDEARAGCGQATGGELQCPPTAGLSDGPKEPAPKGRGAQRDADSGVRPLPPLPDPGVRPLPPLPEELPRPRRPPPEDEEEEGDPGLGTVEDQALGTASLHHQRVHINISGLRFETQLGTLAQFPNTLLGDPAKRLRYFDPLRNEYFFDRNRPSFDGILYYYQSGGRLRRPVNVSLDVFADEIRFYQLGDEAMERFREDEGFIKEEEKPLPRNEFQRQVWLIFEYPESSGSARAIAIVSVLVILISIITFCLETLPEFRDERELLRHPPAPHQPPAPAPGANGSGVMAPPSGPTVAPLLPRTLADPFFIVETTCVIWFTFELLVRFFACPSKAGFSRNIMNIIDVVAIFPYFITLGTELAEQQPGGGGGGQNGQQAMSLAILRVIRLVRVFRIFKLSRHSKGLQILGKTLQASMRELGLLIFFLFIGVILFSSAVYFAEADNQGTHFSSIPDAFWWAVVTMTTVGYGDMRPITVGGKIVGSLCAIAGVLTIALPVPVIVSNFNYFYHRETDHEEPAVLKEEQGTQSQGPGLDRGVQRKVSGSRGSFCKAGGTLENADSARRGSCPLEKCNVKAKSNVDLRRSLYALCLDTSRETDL
row,IC50 [nM],Compound
1,280,"COCCNc1nc(NCc2ccccn2)c2c(-c3ccccc3)csc2n1 [Example 189, N^2-(2-Methoxyethyl)-5-phenyl-N^4-(pyridin-2-ylmethyl)thieno[2,3-d]pyrimidine-2,4-diamine]"
2,2180,"Nc1nc(NCc2ccccn2)c2c(-c3ccccc3)csc2n1 [Example 192, 5-Phenyl-N-4-pyridin-2-ylmethyl-thieno[2,3-d]pyrimidine-2,4-diamine]"
3,220,"COc1ccc(-c2csc3ncnc(NCc4ccccn4)c23)cc1 [Example 138, [5-(4-Methoxy-phenyl)-thieno[2,3-d]pyrimidin-4-yl]-pyridin-2-ylmethyl-amine]"
4,370,"CC(Nc1ncnc2scc(-c3ccccc3)c12)c1ccccn1 (centres unmarked) [Example 149, (5-Phenyl-thieno[2,3-d]pyrimidin-4-yl)-(1-pyridin-2-yl-ethyl)-amine]"
5,570,"CN(C)c1nc(NCc2ccccn2)c2c(-c3ccccc3)csc2n1 [Example 198, N^2,N^2-Dimethyl-5-phenyl-N^4-pyridin-2-ylmethyl-thieno[2,3-d]pyrimidine-2,4-diamine]"

# System: not given
# Assay: not given
# Conditions: not given
row,melting point [°C],Compound
1,184 to 185,"Cn1ccc2cc(-c3csc4ncnc(NCc5ccccn5)c34)ccc21 [Example 312, [5-(1-Methyl-1H-indol-5-yl)thieno[2,3-d]pyrimidin-4-yl]pyridin-2-ylmethylamine]"
2,109 to 111,"c1ccc(-c2csc3nc(NCC4CC4)nc(NCc4ccccn4)c23)cc1 [Example 188, N^2-Cyclopropylmethyl-5-phenyl-N^4-pyridin-2-ylmethyl-thieno[2,3-d]pyrimidine-2,4-diamine]"
3,97 to 99,"ClCc1nc(NCc2ccccn2)c2c(-c3ccccc3)csc2n1 [Example 301, (2-Chloromethyl-5-phenylthieno[2,3-d]pyrimidin-4-yl)pyridin-2-ylmethylamine]"
4,77 to 79,"c1ccc(-c2csc3ncnc(NCc4ccco4)c23)cc1 [Example 83, Furan-2-ylmethyl-(5-phenyl-thieno[2,3-d]pyrimidin-4-yl)-amine]"
5,90 to 92,"OCCc1nc(NCc2ccccn2)c2c(-c3ccccc3)csc2n1 [Example 250, 2-{5-Phenyl-4-[(pyridin-2-ylmethyl)amino]thieno[2,3-d]pyrimidin-2-yl}ethanol]"
6,110 to 112,"Cc1nc(NCc2ccccn2)c2c(-c3ccccc3)csc2n1 [Example 101, 2-Methyl-N-(2-pyridyl)methyl-5-phenylthieno[2,3-d]pyrimidin-4-ylamine]"

# Biological target: hKv1.5 (Homo sapiens, UniProt P22460)
# Sequence (P22460 whole entry): as above
# Assay: Kv1.5 Autopatch electrophysiology (whole cell patch-clamp)
# Type: cell-based
# Conditions: hKv1.5 current, compound at 1 μM
# Procedure: The external bathing solution contained (in mM): 150 NaCl, 10 KCl, […], 3 MgCl2, 1 CaCl2, 10 HEPES, pH 7.4. Patch pipettes were filled with an electrode solution of composition (in mM): 160 KCl, 0.5 MgCl2, 10 HEPES, 1 EGTA, pH 7.4 with KOH.
# Compounds were dissolved in DMSO (100%) and made up in the external bather at a concentration of 1 μM. All experiments were conducted at room temperature (22-24° C.).
# A cell suspension (10 ml), with a density of 100,000 cells/ml, was aliquoted into a 15 ml centrifuge tube and transferred to an incubator (37° C., 5% CO2) for approximately one hour before use. Following 60 min incubation, a tube was taken and centrifuged at 1000 rpm for 4 mins at room temperature. 9.5 ml supernatant was thence discarded, leaving a cell pellet at the bottom of the tube. The pellet was then resuspended using 100 μl of cold (4° C.), filtered (0.22 μm), 0.2% BSA/bather solution (0.02 g BSA/10 ml bather). The bottom of the tube was manually agitated gently until the solution became cloudy with cells. The 100 μl cell resuspension solution was then stored on the bench at 4° C. (using a Peltier-based temperature control device) until used.
# A length of capillary glass (1B150E-4, WPI) was dipped into the cell suspension solution, such that ˜3 cm column of fluid was taken up by capillary action. A Ag/AgCl wire was dropped into the non-dipped end of the capillary also. The outside of the solution-filled end of the capillary was then dried and the capillary was loaded into the AutoPatch™
# Borosilicate glass patch pipettes (from 1.5 mm OD, thin-walled filamented, GC150-TF capillary glass, Harvard) were pulled using a DMZ pipette puller (Zeitz Instruments), and were back-filled using the internal pipette solution, being careful that no bubbles remain at the tip or in the body of the pipette. […]
# Electrophysiology voltage-step protocols and analysis of data was performed as follows. […] Currents were analysed using Pulsefit software (v8.54, HEKA, Germany), with the total charge measured during the whole of the voltage step. […]
inhibition at 1 µM [%],Compound,% Inhibition at 1 μM [%]
,"COCc1nc(NCc2ccccn2)c2c(-c3ccccc3)csc2n1 [Example 305, (2-Methoxymethyl-5-phenylthien[2,3-d]primidin-4-yl)pyridin-2-ylmethylamine]",94.0
73.4,"c1ccc(-c2csc3ncnc(NCC4CCCCC4)c23)cc1 [Example 89, Cyclohexylmethyl-(5-phenyl-thieno[2,3-d]pyrimidin-4-yl)-amine]",
,"3-{5-Phenyl-4-[(pyridin-2-ylmethyl)-amino]-thieno[2,3-d]pyrimidin-2-ylamino)}-propane-1,2-diol [Example 214]",87.0
